Source: PubChem BioAssay AID2060329 (Molecular Pharmacology Branch, DTP, NCI, 2025)

Tested on: MCF7 multi-cell spheroids with HUVEC/MSC, viability
Assay: Anticancer human tumor MCF7 cell line growth inhibition [IpAb];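 also: spheroids exposed to agents for seven days before readout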
Conditions: for IC50: curve of first compound; for viability, T/C: stronger effect = lower value; active = viability on the fitted dose curve at most 10% of control; inactive = the rest
Description: Combinatorial screen of targeted agents with ipatasertib and abemaciclib in multi-cell type tumor spheroids
A high-throughput screen of multi-cell type tumor spheroids was designed to identify active combinations of targeted small molecules and ipatasertib or abemaciclib. Complex spheroids include a stromal component modeled by human endothelial cells (HUVEC) and fibroblasts modeled by human mesenchymal stem cells (MSCs). The concentration ranges selected for each drug and investigational agent were based upon clinically achievable concentrations if the clinical Cmax of the agent was known.
Compounds. The drugs and investigational agents: ipatasertib (NSC767898), abemaciclib(NSC768073), selumetinib (NSC741078), trametinib (758246), adavosertib (NSC754352), everolimus (NSC733504), sapanisertib (NSC764658), vemurafenib (NSC761431), venetoclax (NSC766270), copanlisib (NSC809693), apelisib (NSC765974), palbociblib (NSC758247), vemurafenib (NSC761431), dabrafenib (NSC764134), ravoxertinib (NSC781343), BMS-387032 (NSC767048), sotorasib (NSC818433), talazoparib (NSC767125) and afursertib (NSC778305), were obtained from the National Cancer Institute (NCI) Developmental Therapeutics Program Chemical Repository. The FDA-approved anticancer drug set is available from the NCI Developmental Therapeutics Program. […] The stock solutions were prepared in dimethyl sulfoxide (DMSO, Sigma-Aldrich, St. Louis, MO, cat. D2650) at 800-fold the tested concentration and stored at -70 degrees C prior to their use. All drugs and investigational agents were tested over a range starting from a high concentration at or near the clinical Cmax and decreasing in half-log increments. If the clinical Cmax for an agent had not been determined, the highest concentration tested was 10 microM.
NCI60 Cell Culture. NCI60 cell lines were obtained from the NCI Developmental Therapeutics Program Tumor Repository. For each lot of cells, the Repository performed Applied Biosystems AmpFLSTR Identifiler testing with PCR amplification to confirm consistency with the published Identifier STR profile for each cell line. Cells were kept in continuous culture for no more than 20 passages. The optimal seeding densities for each of the cell lines at each time point assessed were determined prior to performing the concentration response studies. Briefly, the NCI60 human tumor lines were grown as monolayers in RPMI 1640 medium supplemented with 10% FBS and 2 mmol/L L-glutamine.
An additional 9 lines were from the NCI60 cell line panel including MDA-MB-231 breast carcinoma, MDA-MB-468 breast carcinoma, MCF7 breast carcinoma, Hs578T breast carcinoma, MALME-3M melanoma, SK-MEL-2 melanoma, SK-OV-3 ovarian carcinoma, DU-145 prostate carcinoma, PC-3 prostate carcinoma, all cell lines along with major genetic alterations are listed on Table 2. Pooled donor human umbilical vein endothelial cells (HUVEC, Lonza, cat. CC-2519) and human mesenchymal stem cells (hMSC, Lonza, cat. PT-2501) were purchased from Lonza (Walkersville, MD).
PDMR cell lines were grown in complete medium (DC medium): Dulbecco's modified Eagle's medium (DMEM)/F12 supplemented with 5% fetal bovine serum (FBS), 2 mM L-glutamine, 100 U/mL penicillin and 100 µg/ml streptomycin, 0.4 µg/ml hydrocortisone, 10 ng/ml epidermal growth factor (EGF) recombinant human protein, 24 µg/mL adenine, and 0.1 mg/mL primocin. During culture from frozen stock vials, PDMR cells were cultured in the same medium containing 10 µM Y-27632 (see Table 3). The PDCs were cultured in complete DMEM/F12 media without 10 microM Y-27632 dihydrochloride for at least two passages prior to the screen. The pooled donor HUVEC and hMSC were cultured in endothelial cell growth medium 2 (PromoCell, Heidelberg, Germany, cat. C-22011) and mesenchymal stem cell growth medium 2 (PromoCell, cat. C-28009), respectively. For all experiments, HUVEC and hMSC were used at passages </=5.
[…]

[1] = second compound 0.1 µM, first compound 0.0316 µM
[2] = second compound 0.1 µM, first compound 0.1 µM
[3] = second compound 0.316 µM, first compound 0.0316 µM
[4] = second compound 0.316 µM, first compound 0.1 µM
[5] = second compound 1 µM, first compound 0.0316 µM
[6] = second compound 1 µM, first compound 0.1 µM
[7] = second compound 0.1 µM, first compound 0.316 µM
[8] = second compound 0.1 µM, first compound 1 µM
[9] = second compound 0.1 µM, first compound 3.16 µM
[10] = second compound 0.1 µM, first compound 10 µM
[11] = second compound 0.316 µM, first compound 0.316 µM
[12] = second compound 0.316 µM, first compound 1 µM
[13] = second compound 0.316 µM, first compound 3.16 µM
[14] = second compound 0.316 µM, first compound 10 µM
[15] = second compound 1 µM, first compound 0.316 µM
[16] = second compound 1 µM, first compound 1 µM
[17] = second compound 1 µM, first compound 3.16 µM
[18] = second compound 1 µM, first compound 10 µM
[19] = second compound 3.16 µM, first compound 0.0316 µM
[20] = second compound 3.16 µM, first compound 0.1 µM
[21] = second compound 3.16 µM, first compound 0.316 µM
[22] = second compound 3.16 µM, first compound 1 µM
[23] = second compound 3.16 µM, first compound 3.16 µM
[24] = second compound 3.16 µM, first compound 10 µM
[25] = second compound 10 µM, first compound 0.0316 µM
[26] = second compound 10 µM, first compound 0.1 µM
[27] = second compound 10 µM, first compound 0.316 µM
[28] = second compound 10 µM, first compound 1 µM
[29] = second compound 10 µM, first compound 3.16 µM
[30] = second compound 10 µM, first compound 10 µM

Cn1ncnc1[C@H]1c2n[nH]c(=O)c3cc(F)cc(c23)N[C@@H]1c1ccc(F)cc1 + CCN1CCN(Cc2ccc(Nc3ncc(F)c(-c4cc(F)c5nc(C)n(C(C)C)c5c4)n3)nc2)CC1
> 100 nM: IC50 (second compound 0.01 µM) | IC50 (second compound 0.0316 µM) | IC50 (second compound 0.1 µM) | IC50 (second compound 0.316 µM) | IC50 (second compound 1 µM)
inactive: viability, T/C (second compound 0.01 µM, first compound 0.000316 µM) 95.3% | viability, T/C (second compound 0.01 µM, first compound 0.001 µM) 102% | viability, T/C (second compound 0.01 µM, first compound 0.00316 µM) 115% | viability, T/C (second compound 0.01 µM, first compound 0.01 µM) 98.6% | viability, T/C (second compound 0.01 µM, first compound 0.0316 µM) 106% | viability, T/C (second compound 0.01 µM, first compound 0.1 µM) 92.5% | viability, T/C (second compound 0.0316 µM, first compound 0.000316 µM) 98.6% | viability, T/C (second compound 0.0316 µM, first compound 0.001 µM) 107% | viability, T/C (second compound 0.0316 µM, first compound 0.00316 µM) 83.8% | viability, T/C (second compound 0.0316 µM, first compound 0.01 µM) 89.4% | viability, T/C (second compound 0.0316 µM, first compound 0.0316 µM) 100% | viability, T/C (second compound 0.0316 µM, first compound 0.1 µM) 88.1% | viability, T/C (second compound 0.1 µM, first compound 0.000316 µM) 114% | viability, T/C (second compound 0.1 µM, first compound 0.001 µM) 103% | viability, T/C (second compound 0.1 µM, first compound 0.00316 µM) 107% | viability, T/C (second compound 0.1 µM, first compound 0.01 µM) 87.5% | viability, T/C [1] 85.1% | viability, T/C [2] 85.3% | viability, T/C (second compound 0.316 µM, first compound 0.000316 µM) 108% | viability, T/C (second compound 0.316 µM, first compound 0.001 µM) 106% | viability, T/C (second compound 0.316 µM, first compound 0.00316 µM) 93.4% | viability, T/C (second compound 0.316 µM, first compound 0.01 µM) 97.4% | viability, T/C [3] 90.2% | viability, T/C [4] 88.7% | viability, T/C (second compound 1 µM, first compound 0.000316 µM) 100% | viability, T/C (second compound 1 µM, first compound 0.001 µM) 105% | viability, T/C (second compound 1 µM, first compound 0.00316 µM) 84.4% | viability, T/C (second compound 1 µM, first compound 0.01 µM) 100% | viability, T/C [5] 85.3% | viability, T/C [6] 85.7%

Cn1ncc(Cl)c1-c1cc(C(=O)NC(CN)Cc2cccc(F)c2)sc1Cl (stereo not given) + CC(C)NCC(C(=O)N1CCN(c2ncnc3c2C(C)CC3O)CC1)c1ccc(Cl)cc1
< 31.6 nM: IC50 (second compound 10 µM)
active: viability, T/C [9] 3.8% | viability, T/C [10] 0.14% | viability, T/C [14] 0.13% | viability, T/C [17] 7% | viability, T/C [18] 0.12% | viability, T/C [23] 6.48% | viability, T/C [24] 0.13% | viability, T/C [29] 2.17% | viability, T/C [30] 0.59%
566 nM: IC50 (second compound 3.16 µM)
1200 nM: IC50 (second compound 0.1 µM)
996 nM: IC50 (second compound 0.316 µM)
1310 nM: IC50 (second compound 1 µM)
inactive: viability, T/C [1] 85.2% | viability, T/C [2] 79.4% | viability, T/C [7] 74.2% | viability, T/C [8] 59.2% | viability, T/C [3] 84.1% | viability, T/C [4] 73.7% | viability, T/C [11] 72.5% | viability, T/C [12] 51.1% | viability, T/C [13] 10.7% | viability, T/C [5] 74.7% | viability, T/C [6] 70.7% | viability, T/C [15] 67.5% | viability, T/C [16] 63.4% | viability, T/C [19] 59.9% | viability, T/C [20] 61.4% | viability, T/C [21] 54% | viability, T/C [22] 43.2% | viability, T/C [25] 42.6% | viability, T/C [26] 49.1% | viability, T/C [27] 47.3% | viability, T/C [28] 43.3%

CC1(C)CCC(CN2CCN(c3ccc(C(=O)NS(=O)(=O)c4ccc(NCC5CCOCC5)c([N+](=O)[O-])c4)c(Oc4cnc5[nH]ccc5c4)c3)CC2)=C(c2ccc(Cl)cc2)C1 + CC(C)NCC(C(=O)N1CCN(c2ncnc3c2C(C)CC3O)CC1)c1ccc(Cl)cc1
inactive: viability, T/C [1] 85% | viability, T/C [2] 83.3% | viability, T/C [7] 87.6% | viability, T/C [8] 84.2% | viability, T/C [9] 84.9% | viability, T/C [10] 22.2% | viability, T/C [3] 72.4% | viability, T/C [4] 74.9% | viability, T/C [11] 69.5% | viability, T/C [12] 72.1% | viability, T/C [13] 67.3% | viability, T/C [14] 11.3% | viability, T/C [5] 69.4% | viability, T/C [6] 64.9% | viability, T/C [15] 70.1% | viability, T/C [16] 56.1% | viability, T/C [17] 49.5% | viability, T/C [18] 10.9% | viability, T/C [19] 47.9% | viability, T/C [20] 51.6% | viability, T/C [21] 51.3% | viability, T/C [22] 39.7% | viability, T/C [23] 34.1% | viability, T/C [25] 39.3% | viability, T/C [26] 34.5% | viability, T/C [27] 32.1% | viability, T/C [28] 27.8% | viability, T/C [29] 29.7% | viability, T/C [30] 5.76%
2510 nM: IC50 (second compound 1 µM)
33.7 nM: IC50 (second compound 3.16 µM)
< 31.6 nM: IC50 (second compound 10 µM)
6000 nM: IC50 (second compound 0.1 µM)
4520 nM: IC50 (second compound 0.316 µM)
active: viability, T/C [24] 9.03%
